Laboratory results: US10525139B2, “Folate-conjugated molecules for delivery of toxic small molecule inhibitors to cancer cells and methods of use” (priority 2014, dated 2020)
“Also recorded” adds a separate entry of the source.

Key:
SERCA2 = molecular target: T1, SERCA2 (Homo sapiens, UniProt P16615); test: Competitive pull-down with Thap-Biotin in T-ALL lysates, immunoblot; assay type: binding; details: ALL/SIL lysates, increasing concentrations of free Thap-OH
T1 construct: Lysates from T-ALL cells (ALL/SIL) were co-treated with the indicated concentrations of biotinylated thapsigargin or Thap-OH; endogenous in cells; host or cells: ALL/SIL T-ALL cells (lysate)
Procedure: (§1) Lysates from T-ALL cells (ALL/SIL) were co-treated with the indicated concentrations of biotinylated thapsigargin or Thap-OH for 6 hours and subjected to streptavidin pulldown for 24 hours. The immunoblot was stained with SERCA2 and SERCA3 antibodies. […] Statistical significance for mutated vs WT (*P≤:0.05, **P≤0.01) was determined by one-way ANOVA with Bonferroni's correction for multiple comparison testing. […] NOTCH1 (N1) was detected with an antibody against the C-terminus of NOTCH1 that recognizes the […] NOTCH1 transmembrane subunit (TM) and the unprocessed NOTCH1 precursor (FL). GAPDH was used as loading control. […] Immunoblot was stained with an antibody against FR2. Vinculin was used as a loading control.
(§2) To test the hypothesis that Thap-OH targets SERCA in T-ALL cells, we first performed a competitive pull-down assay in which protein lysates were treated with a novel biotinylated derivative of thapsigargin (Thap-Biotin), alone or in the presence of increasing concentrations of free, competitive Thap-OH.

SERCA3 = molecular target: T2, SERCA3 (Homo sapiens, UniProt Q93084); test: as above; assay type: binding; details: ALL/SIL lysates, increasing concentrations of free Thap-OH
T2 construct: Lysates from T-ALL cells (ALL/SIL) were co-treated with the indicated concentrations of biotinylated thapsigargin or Thap-OH; endogenous in cells; host or cells: ALL/SIL T-ALL cells (lysate)
Procedure: as §1, §2

[1] = LCMS analysis of cell lysate and media; assay type: in vitro ADME; details: only after cells were treated with FT
Procedure: In order to validate the delivery of the Thap-OH, LCMS analysis of the cell lysate and the media was used to detect the presence of both Folate-Thap (FT) and Thap-OH. […] To directly visualize the folate delivery of a small molecule, folic acid derivatives with appended fluorophores were designed. Both Folate-FITC, suitable for flow cytometry studies, and Folate-TMARA, suitable for high-throughput fluorescence plate readers, were evaluated in vitro to determine the delivery mechanism.

FR2 = FR2 expression by western blot after Thap-OH; assay type: cell-based, human; details: T-ALL cell lines, increasing concentrations of Thap-OH, 24 hours
Procedure: Thapsigargin is a known inducer of the unfolded protein response (UPR). As such, its derivatives may trigger a cellular response that affects the stable expression or trafficking of folate receptors. To exclude that FR2 is a target of UPR, we treated T-ALL cell lines with increasing concentrations of Thap-OH for 24 hours.

NOTCH1 [2] = test: NOTCH1 processing and activation by western blot (FL-N1, TM-N1, ICN1); assay type: cell-based, human
From the text: (§3) We previously described that the SERCA inhibitors thapsigargin and cyclopiazonic acid impair NOTCH1 maturation leading to an accumulation of full-length, unprocessed polypeptides in the endoplasmic reticulum/Golgi subcellular compartment. An immediate consequence of SERCA inhibition is a decrement in NOTCH1 protein display on the surface of T-ALL cells. […] To further support the hypothesis that Thap-OH impairs mutant NOTCH1 maturation, we evaluated levels of full-length, transmembrane and activated NOTCH1 (ICN1) by WB. Lysates from T-ALL cell lines treated with 1 μM Thap-OH were immunoblotted with an antibody specific for the cytoplasmic portion of NOTCH1 that recognizes both unprocessed NOTCH1 (FL-N1) (˜270 kDa) and the furin-processed transmembrane subunit (TM-N1) (˜110 kDa).
Both Folate-Thap (JQ-FT) and Thap-OH were tested in T-ALL cell lines with 24 h treatment. […] Lysates were prepared after treatment with indicated doses of thapsigargin, JQ-FT or Thap-OH for 24 hr. The blot shown was stained with an antibody against the C-terminus of NOTCH1 that recognizes both the furin-processed NOTCH1 transmembrane subunit (TM) and the unprocessed NOTCH1 precursor (FL) (FIG. 2A). GAPDH was used as a loading control. Western blots were stained with antibodies specific for γ-secretase-cleaved NOTCH 1 ([…], Cell Signaling, Beverly, Mass., USA), or the C-terminus of NOTCH1 (SC-6014 (C-20) Santa Cruz Biotechnology, Santa Cruz, Calif., USA). Control stains were carried out with antibodies specific for GAPDH (137179, Santa Cruz Biotechnology). Blots were developed with anti-rabbit-HRP (NA9340V, Amersham, Pittsburgh, Pa., USA) or anti-mouse-HRP (NA9340V or NA9310V, Amersham). Staining was quantified using ImageQuant TI V 7.0 (GE Health Care, Piscataway, N.J., USA).

T-ALL cell lines [3] = test: T-ALL cell viability / growth (ATP content, Cell-Titer Glo); assay type: cell-based, human; details: 72 hours
Procedure: Thus, cell lines carrying NOTCH1 alleles with HD domain, mutations were more sensitive to Thap-OH than cells with WT NOTCH1 alleles.
As a further test of the idea that JQ-FT acts by preventing NOTCH1 activation in a manner similar to thapsigargin, the NOTCH1-dependent T-ALL cell lines RPMI-8402 were transduced with empty MigRI vector or with ICN1, which lies downstream of the γ-secretase cleavage step in Notch activation. Viral supernatant production and retroviral infections were performed as described for MigRI retroviral vectors (Aster, J. C., et al. “Essential roles for ankyrin repeat and transactivation domains in induction of T-cell leukemia by NOTCH1.” Mol. Cell. Biol. 2000; 20:7505-7515). Transduction efficiency for MigRI was monitored by assessing GFP expression with a FACScan flow cytometer (BD, Franklin Lakes, N.J., USA) (Aster et al., Mol. Cell. Biol. 2000; 20:7505-7515). After viral infection, GFP-positive cells were sorted by flow cytometry with a FACSAria II (BD, Franklin Lakes, N.J., USA). […] Therefore, JQ-FT can recapitulate the Thapsigargin effect with the delivery mechanism of folate.
(§4) The NOTCH loss was measured via flow cytometry. […] The recapitulation of the thapsigargin effect by JQ-FT is hypothesized to be due to the delivery strategy introduced by folate. […] Here cell growth was assessed using the Promega Cell-Titer Glo ATP-based assay (Promega, Madison, Wis., USA). Luminescence was measured using a Fluostar Omega instrument (BMG-labtech, Ortenberg, Germany).
The effects of JQ-FT in a panel of T-ALL cell lines that contain activating mutations in the HD domain of NOTCH1 and/or protein stabilizing deletions within the PEST degradation domain.

NOTCH1 [4] = test: NOTCH1 cell surface staining by flow cytometry; assay type: cell-based, human; details: T-ALL cells; for NOTCH1 expression on the cell surface: 24 hours
From the text: as §3, §4

T-ALL cell lines [5] = test: Uptake of fluorescent folate probes by flow cytometry in T-ALL cells; assay type: cell-based, human
From the text: To assess functional engagement of the folate receptor on T-ALL cells, we generated fluorescence-ragged folic acid probes. FL-TAMRA and FL-FITC, as tool compounds (FIG. 7, panel c). […] Taken together, these observations indicate that functional FR2 expression is increased in T-ALL compared to normal cells, further supporting a rationale for folate-mediated delivery in leukemia.
To explore the mechanism of binding and delivery of folate-conjugates in T-ALL, we performed competition and temperature sensitivity studies of the FL-FITC probe. The T-ALL cell Sine RPMI 8402 was engineered to overexpress either FR1 or FR2 and was then treated with increasing concentrations of FL-FITC. […] We next addressed whether folic acid could compete with the FL-FITC probe for uptake. T-ALL cells were grown in medium depleted of folic acid for 48 hours, treated with FL-FITC (1 or 10 μM), and assessed by flow cytometry. […]
In order to validate the delivery of the Thap-OH, LCMS analysis of the cell lysate and the media was used to detect the presence of both Folate-Thap (FT) and Thap-OH. […] Both Folate-FITC, suitable for flow cytometry studies, and Folate-TMARA, suitable for high-throughput fluorescence plate readers, were evaluated in vitro to determine the delivery mechanism.

T1 sequence (P16615 whole entry): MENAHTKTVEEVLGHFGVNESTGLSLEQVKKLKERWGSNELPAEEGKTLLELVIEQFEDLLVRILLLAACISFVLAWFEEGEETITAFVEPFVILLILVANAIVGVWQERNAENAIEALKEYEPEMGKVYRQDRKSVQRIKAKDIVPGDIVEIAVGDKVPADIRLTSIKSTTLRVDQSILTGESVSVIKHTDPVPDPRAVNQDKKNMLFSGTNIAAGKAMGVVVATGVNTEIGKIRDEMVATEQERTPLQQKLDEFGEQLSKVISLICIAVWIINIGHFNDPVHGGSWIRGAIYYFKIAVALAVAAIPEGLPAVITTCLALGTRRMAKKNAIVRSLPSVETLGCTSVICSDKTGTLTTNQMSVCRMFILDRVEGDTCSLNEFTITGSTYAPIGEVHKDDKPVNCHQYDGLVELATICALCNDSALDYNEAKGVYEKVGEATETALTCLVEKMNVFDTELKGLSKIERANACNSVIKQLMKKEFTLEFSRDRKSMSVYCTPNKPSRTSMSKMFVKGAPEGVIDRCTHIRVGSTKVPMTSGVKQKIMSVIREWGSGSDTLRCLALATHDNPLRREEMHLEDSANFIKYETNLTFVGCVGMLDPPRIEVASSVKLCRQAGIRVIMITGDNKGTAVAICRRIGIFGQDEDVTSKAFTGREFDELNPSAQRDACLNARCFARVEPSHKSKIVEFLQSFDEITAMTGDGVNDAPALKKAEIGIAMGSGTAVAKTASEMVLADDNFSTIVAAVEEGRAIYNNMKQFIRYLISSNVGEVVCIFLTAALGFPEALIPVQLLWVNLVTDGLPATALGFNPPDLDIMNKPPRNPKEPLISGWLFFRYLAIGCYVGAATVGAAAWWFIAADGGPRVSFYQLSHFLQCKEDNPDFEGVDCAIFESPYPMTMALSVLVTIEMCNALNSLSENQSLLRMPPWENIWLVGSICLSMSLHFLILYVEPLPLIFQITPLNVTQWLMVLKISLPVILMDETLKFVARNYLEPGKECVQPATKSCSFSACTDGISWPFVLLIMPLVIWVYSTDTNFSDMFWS
T2 sequence (Q93084 whole entry): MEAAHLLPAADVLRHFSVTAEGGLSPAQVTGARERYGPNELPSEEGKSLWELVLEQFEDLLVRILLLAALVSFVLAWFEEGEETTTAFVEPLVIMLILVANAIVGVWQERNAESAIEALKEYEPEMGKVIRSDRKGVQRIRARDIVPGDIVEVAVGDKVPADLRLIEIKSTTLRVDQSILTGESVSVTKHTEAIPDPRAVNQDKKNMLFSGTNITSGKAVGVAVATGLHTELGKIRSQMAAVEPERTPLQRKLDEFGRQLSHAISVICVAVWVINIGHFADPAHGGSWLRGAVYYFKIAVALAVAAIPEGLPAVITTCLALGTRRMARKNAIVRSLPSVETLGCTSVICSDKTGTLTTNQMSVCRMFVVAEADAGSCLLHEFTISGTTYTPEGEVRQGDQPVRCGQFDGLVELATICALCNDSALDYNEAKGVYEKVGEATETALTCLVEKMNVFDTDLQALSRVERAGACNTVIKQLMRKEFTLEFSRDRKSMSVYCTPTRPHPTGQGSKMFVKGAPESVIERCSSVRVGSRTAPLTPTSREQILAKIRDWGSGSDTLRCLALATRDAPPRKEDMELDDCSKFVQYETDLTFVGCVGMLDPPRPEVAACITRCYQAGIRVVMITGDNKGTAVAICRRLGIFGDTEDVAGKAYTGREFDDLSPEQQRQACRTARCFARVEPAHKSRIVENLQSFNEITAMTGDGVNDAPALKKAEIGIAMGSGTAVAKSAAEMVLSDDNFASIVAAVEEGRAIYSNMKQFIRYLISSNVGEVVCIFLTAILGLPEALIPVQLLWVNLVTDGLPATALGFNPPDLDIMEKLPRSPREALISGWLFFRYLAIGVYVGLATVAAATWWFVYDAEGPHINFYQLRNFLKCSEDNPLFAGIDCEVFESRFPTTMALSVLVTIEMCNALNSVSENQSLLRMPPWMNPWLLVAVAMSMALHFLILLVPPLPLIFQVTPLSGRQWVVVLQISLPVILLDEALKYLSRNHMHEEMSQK

## C/C=C(/C)C(=O)O[C@H]1C(C)=C2[C@H]([C@@H]1OC(=O)CCCCCCC)[C@@](C)(OC(C)=O)C[C@H](O)[C@@]1(O)[C@H]2OC(=O)[C@@]1(C)O [Thap-OH, 8-O-debutanoylthapsigargin]
SERCA2
  competition with biotinylated thapsigargin for SERCA2: competed off biotinylated thapsigargin
SERCA3
  competition with biotinylated thapsigargin for SERCA3: competed off biotinylated thapsigargin
[1]
  detection of released Thap-OH in cell lysate: detected in cell lysate
FR2
  FR2 expression: No change in FR2 expression
NOTCH1 [2]; T-ALL cell lines with HD mutations, 24 h, Thap-OH at 1 μM
  furin-processed transmembrane NOTCH1 subunit (TM-N1) level: reduced the levels of the furin-processed transmembrane NOTCH1 subunit
NOTCH1 [2]; T-ALL cell lines, 24 h
  ICN1 level: decreased ICN1 levels
  unprocessed full-length NOTCH1 (FL-N1) level: not the unprocessed full-length NOTCH1 precursor
NOTCH1 [2]; T-ALL cell lines, 24 h treatment
  activity on NOTCH1 processing relative to JQ-FT: much lower activity
NOTCH1 [2]; WT cell lines (Loucy, MOLT16), concentrations tested
  NOTCH1 maturation in NOTCH1 WT cell lines: no effect on NOTCH1 maturation in the WT cell lines
T-ALL cell lines [3]; Thap-OH, dose-ranging ATP content assays
  T-ALL cell viability: decrease in T-ALL cell viability
T-ALL cell lines [3]; mutated (ALL/SIL, DND41, PF382, RPMI 8402) vs WT (Loucy, MOLT16, SUPT11)
  sensitivity of NOTCH1 mutant versus WT T-ALL cells: mutant T-ALL cells were more sensitive to the effects of Thap-OH than NOTCH1 WT cells
NOTCH1 [4]
  effect on cell surface NOTCH1 compared with thapsigargin: less potent than the natural product; also recorded: reduced effect
  NOTCH1 expression on the cell surface: concentration-dependent reduction in NOTCH1 expression on the cell surface; also recorded: show NOTCH loss

## CCCCC[C@@H](O)[C@H]1C(=O)O[C@H](C)[C@@H](O)/C=C/C=C/C=C/C=C/C=C(\C)[C@@H](O)C[C@H](O)C[C@H](O)C[C@H](O)C[C@H](O)C[C@H](O)C[C@@H]1O [filipin]
T-ALL cell lines [5]; four T-ALL cell lines pretreated with 10 μM filipin, 10 μM FL-FITC
  mean percentage reduction of FITC fluorescence signal: 38.9±2.5 percentage

## Nc1nc2ncc(CNc3ccc(C(=O)N[C@@H](CCC(=O)O)C(=O)O)cc3)nc2c(=O)[nH]1 [folic acid]
T-ALL cell lines [5]; free folic acid added to T-ALL culture
  competition of free folic acid with folate derivatives for uptake: competed away the folate derivatives; also recorded: competes with folate-FITC

## C/C=C(/C)C(=O)O[C@H]1C(C)=C2[C@H]([C@@H]1OC(=O)CCCCCCC)[C@@](C)(OC(C)=O)C[C@H](OC(=O)CCC)[C@@]1(O)[C@H]2OC(=O)[C@@]1(C)O [thapsigargin, Thapsigargin, reference compound]
NOTCH1 [4]
  NOTCH1 expression on the cell surface: concentration-dependent reduction in NOTCH1 expression on the cell surface
